System: HCV
Test: Assay of anti-HCV activity in HCV-infected Huh7.5 cells (intracellular HCV RNA by one-step quantitative RT-PCR)
Format: cell-based
Conditions: Hepatitis C virus, Huh7.5, 96 h, read-out: inhibitory activities (inhibitory levels of the compounds against HCV replication)
Procedure: 100 μL Huh7.5 cells were seeded at a density of 1×10^5/mL in a 96-well cell culture plate and incubated in an incubator at 37° C., 5% CO2 and saturated humidity for 6 hrs. Then, while infecting Huh7.5 cells with viral solution containing HCV virus particles, the compounds of the present invention (including all specific compounds listed herein) were added at a concentration of 1 μM, respectively. After continuing incubation for 96 hrs, the total intracellular RNA was extracted separately, and the content of intracellular HCV RNA was measured by one-step quantitative RT-PCR, compared with the RNA level of the viral control, and the inhibition rate of the compounds against HCV was calculated.

SMILES | inhibition at 1 µM
CN(CCN1CC1)c1ccc(C(F)(F)F)c(CN2CCN(C(c3ccc(Cl)cc3)c3ccc(Cl)cc3)CC2)c1 [Compound 64, N-(2-(aziridin-1-yl)ethyl)-3-((4-(bis(4-chlorophenyl)methyl)piperazin-1-yl)methyl)-N-methyl-4-(trifluoromethyl)aniline] | > 75%

Same assay, conditions: Hepatitis C virus; compound at 1 μM; Huh7.5 cells infected with HCV; 96 hrs; intracellular HCV RNA vs viral control; read-out: inhibitory activities (inhibitory levels of the compounds against HCV replication)

SMILES | inhibition at 1 µM
CN(CCN1CCCC1)c1ccc(C(F)(F)F)c(CN2CCN(C(c3ccc(Cl)cc3)c3ccc(Cl)cc3)CC2)c1 [Compound 63, 3-((4-(bis(4-chlorophenyl)methyl)piperazin-1-yl)methyl)-N-methyl-N-(2-(pyrrolidin-1-yl)ethyl)-4-(trifluoromethyl)aniline] | > 75%
CCN1CCCN(c2ccc(C(F)(F)F)c(CN3CCN(C(c4ccccn4)c4ccccn4)CC3)c2)CC1 [Compound 65, 1-(3-((4-(di(pyridin-2-yl)methyl)piperazin-1-yl)methyl)-4-(trifluoromethyl)phenyl)-4-ethyl-1,4-diazepane] | 50 to 75%
CN(C)CCN(C)c1ccc(C(F)(F)F)c(CN2CCN(C(c3ccc(F)cc3)c3ccc(F)cc3)CC2)c1 [Compound 66, N^1-(3-((4-(bis(4-fluorophenyl)methyl)piperazin-1-yl)methyl)-4-(trifluoromethyl)phenyl)-N^1,N^2,N^2-trimethylethan-1,2-diamine] | > 75%
CN(C)C1CCCN(c2ccc(C(F)(F)F)c(CN3CCN(C(c4ccc(Cl)cc4)c4ccc(Cl)cc4)CC3)c2)C1 (stereo not shown) [Compound 67, 1-(3-((4-(bis(4-chlorophenyl)methyl)piperazin-1-yl)methyl)-4-(trifluoromethyl)phenyl)-N,N-dimethylpiperidin-3-amine] | > 75%
CN1CCN(c2ccc(C(F)(F)F)c(CN3CCN(C(c4ccc(Br)cc4)c4ccc(Br)cc4)CC3)c2)CC1 [Compound 68, 1-(bis(4-bromophenyl)methyl)-4-(5-(4-methylpiperazin-1-yl)-2-(trifluoromethyl)benzyl)piperazine] | > 75%
CN(C)C1CCN(c2ccc(C(F)(F)F)c(CN3CCN(C(c4ccc(F)cc4)c4ccc(F)cc4)CC3)c2)CC1 [Compound 69, 1-(3-((4-(bis(4-fluorophenyl)methyl)piperazin-1-yl)methyl)-4-(trifluoromethyl)phenyl)-N,N-dimethylpiperidin-4-amine] | > 75%
CCCN(C)CCN(C)c1ccc(C(F)(F)F)c(CN2CCN(C(c3ccc(Cl)cc3)c3ccc(Cl)cc3)CC2)c1 [Compound 70, N^1-(3-((4-(bis(4-chlorophenyl)methyl)piperazin-1-yl)methyl)-4-(trifluoromethyl)phenyl)-N^1,N^2-dimethyl-N^2-propylethan-1,2-diamine] | > 75%
CN(C)CCN(C)CCN(C)c1ccc(C(F)(F)F)c(CN2CCN(C(c3ccc(F)cc3)c3ccc(F)cc3)CC2)c1 [Compound 71, N^1-(3-((4-(bis(4-fluorophenyl)methyl)piperazin-1-yl)methyl)-4-(trifluoromethyl)phenyl)-N^2-(2-(dimethylamino)ethyl)-N^1,N^2-dimethylethan-1,2-diamine] | > 75%
CN(C)CCN(C)c1ccc(C(F)(F)F)c(CN2CCC(C(c3ccc(Cl)cc3)c3ccc(Cl)cc3)CC2)c1 [Compound 72, N^1-(3-((4-(bis(4-chlorophenyl)methyl)piperidin-1-yl)methyl)-4-(trifluoromethyl)phenyl)-N^1,N^2,N^2-trimethylethan-1,2-diamine] | > 75%
CN(C)CCN(C)c1ccc(C(F)(F)F)c(CN2CCC(C(c3ccc(Br)cc3)c3ccc(Br)cc3)CC2)c1 [Compound 73, N^1-(3-((4-(bis(4-bromophenyl)methyl)piperidin-1-yl)methyl)-4-(trifluoromethyl)phenyl)-N^1,N^2,N^2-trimethylethan-1,2-diamine] | > 75%
CN(C)CCN(C)c1ccc(C#N)c(CN2CCN(C(c3ccc(Cl)cc3)c3ccc(Cl)cc3)CC2)c1 [Compound 74, 2-((4-(bis(4-chlorophenyl)methyl)piperazin-1-yl)methyl)-4-((2-(dimethylamino)ethyl)(methyl)amino)benzonitrile] | > 75%
COc1ccc(C(c2ccc(OC)cc2)N2CCN(Cc3cc(N4CCCN(C)CC4)ccc3C#N)CC2)cc1 [Compound 75, 2-((4-(bis(4-methoxyphenyl)methyl)piperazin-1-yl)methyl)-4-(4-methyl-1,4-diazepan-1-yl)benzonitrile] | > 75%
CN1CCCN(c2ccc(C#N)c(CN3CCN(C(c4ccc(F)cc4)c4ccc(F)cc4)CC3)c2)CC1 [Compound 76, 2-((4-(bis(4-fluorophenyl)methyl)piperazin-1-yl)methyl)-4-(4-methyl-1,4-diazepan-1-yl)benzonitrile] | > 75%
CN1CCCN(c2ccc(C#N)c(CN3CCN(C(c4ccc(Cl)cc4)c4ccc(Cl)cc4)CC3)c2)CC1 [Compound 77, 2-((4-(bis(4-chlorophenyl)methyl)piperazin-1-yl)methyl)-4-(4-methyl-1,4-diazepan-1-yl)benzonitrile] | > 75%
CN(CCn1ccnc1)c1ccc(C#N)c(CN2CCN(C(c3ccc(Cl)cc3)c3ccc(Cl)cc3)CC2)c1 [Compound 78, 4-((2-(1H-imidazol-1-yl)ethyl)(methyl)amino)-2-((4-(bis(4-chlorophenyl)methyl)piperazin-1-yl)methyl)benzonitrile] | > 75%
CN(C)CCN(C)c1ccc(C#N)c(CN2CCN(C(c3ccncc3)c3ccncc3)CC2)c1 [Compound 79, 2-((4-(di(pyridin-4-yl)methyl)piperazin-1-yl)methyl)-4-((2-(dimethylamino)ethyl)(methyl)amino)benzonitrile] | 50 to 75%
CN1CCN(c2ccc(C#N)c(CN3CCN(C(c4ccc(Cl)cc4)c4ccc(Cl)cc4)CC3)c2)CC1 [Compound 80, 2-((4-(bis(4-chlorophenyl)methyl)piperazin-1-yl)methyl)-4-(4-methylpiperazin-1-yl)benzonitrile] | > 75%
CC(C)c1ccc(C(c2ccc(C(C)C)cc2)N2CCN(Cc3cc(N(C)CCN(C)C)ccc3C#N)CC2)cc1 [Compound 81, 2-((4-(bis(4-isopropylphenyl)methyl)piperazin-1-yl)methyl)-4-((2-(dimethylamino)ethyl)(methyl)amino)benzonitrile] | > 75%
CN(C)CCN(C)c1ccc(C#N)c(CN2CCN(C(c3ccc(C(C)(C)C)cc3)c3ccc(C(C)(C)C)cc3)CC2)c1 [Compound 82, 2-((4-(bis(4-tert-butylphenyl)methyl)piperazin-1-yl)methyl)-4-((2-(dimethylamino)ethyl)(methyl)amino)benzonitrile] | > 75%
CN(C)CCN(C)c1ccc(C#N)c(CN2CCN(C(c3ccc(Br)cc3)c3ccc(Br)cc3)CC2)c1 [Compound 83, 2-((4-(bis(4-bromophenyl)methyl)piperazin-1-yl)methyl)-4-((2-(dimethylamino)ethyl)(methyl)amino)benzonitrile] | > 75%
CN(C)CCN(C)c1ccc(C#N)c(CN2CCN(C(c3ccc(C4CC4)cc3)c3ccc(C4CC4)cc3)CC2)c1 [Compound 84, 2-((4-(bis(4-cyclopropylphenyl)methyl)piperazin-1-yl)methyl)-4-((2-(dimethylamino)ethyl)(methyl)amino)benzonitrile] | > 75%

Source: patent US11939307B2, “Phenylmethyl-piperazine derivatives and antiviral uses thereof” (INSTITUTE OF MEDICINAL BIOTECHNOLOGY, CHINESE ACADEMY OF …, priority 2019, dated 2024)
